# Source: a melting point compilation (Tetko et al.; mined from patent text by program, amines drawn as free bases though some values may be those of a salt)
row,Compound,melting point [°C]
1,COC(=O)CCCc1cc2cc(C(F)(F)F)ccc2n1S(=O)(=O)c1cccc(C(C)C)c1,115
2,CCOc1cc2ncc(C#N)c(N(C)c3ccccc3)c2cc1OCC,153 to 155
3,COc1ccnc(C(=O)N[C@H]2COC(=O)[C@H](CC3CCCCC3)[C@@H](OC(=O)C(C)C)[C@H](C)OC2=O)c1OC(C)=O,164 to 170
4,O=C(CNc1ccccc1F)Nc1ccc([N+](=O)[O-])cc1,150 to 153
5,Cc1cc(-c2ccc(C(F)(F)F)cc2)cc(-c2cccc(-c3cccc(S(=O)(=O)NC(=O)C(C)C)c3)n2)n1,190
6,O=C(Cc1ccc(CCNS(=O)(=O)c2ccc(Cl)cc2)cc1)Nc1nnn[nH]1,168 to 170
7,O=C(Nc1c[nH]nc1C(=O)Nc1cccc(C(F)(F)F)c1)c1ccccn1,236 to 237
8,COC(=O)c1ccc2c(c1)S(=O)(=O)c1ccccc1N=C2,181 to 182
9,O=C(NCCc1ccccc1)Nc1ccc(CN2C(=O)[C@H]3CCC[C@H]3N(C(=O)CCl)c3ccccc32)cc1 (relative stereo),224 to 226
10,CCCCCCCCCCCCc1nnn(CC(=O)Nc2ccc(F)cc2F)n1,103 to 106
11,CC(C)Oc1ccc2ccc(C(N)=O)c(OC(C)C)c2c1,145 to 146
12,CC(C)C[C@H](NC(=O)CCCc1ccccc1)C(=O)N[C@@H](C(C)C)[C@@H](O)c1c(-c2ccccc2)c1=O,91 to 96
13,O=[N+]([O-])c1cc(C(F)(F)F)cc2nc(N3CCN(c4ncccc4C(F)(F)F)CC3)[nH]c12,192
14,CCOC(=O)c1scc2c1ccc1cn[nH]c12,124 to 125
15,C[C@@H](n1cnc2cc(-c3ccc(Cl)cc3)sc2c1=O)[C@](O)(Cn1cncn1)c1ccc(Cl)cc1Cl,132 to 136
16,N#CCc1ccc(NS(=O)(=O)c2ccc(N3CCNC3=O)cc2)cc1,204 to 206
17,C[C@@]1(CO)CCC(=O)O1,44.5 to 46.5
18,COC(=O)c1cccc(C(=O)NC(Nc2c(Nc3cccnc3)c(=O)c2=O)C(C)(C)C)c1 (configuration not stated),228 to 229
19,O=C1CC[C@@H](CI)N1Cc1ccccc1,92 to 94

row,Compound,melting point [°C]
1,O=[N+]([O-])c1cccc(OC2CCCCO2)c1O (configuration not stated),72 to 73
2,CC(C)(OCCCCCCCCc1csc(-c2ccccc2)n1)C(=O)O,64 to 70
3,COc1cc2c(cc1C(C)=O)CC1(CCCCN1C(=O)C(F)(F)F)CC2 (configuration not stated),156 to 157
4,Nc1nc2ccccc2c2c1ncn2CCOC/C=C/c1ccccc1,184
5,CNc1coc2cc(NS(C)(=O)=O)c(Oc3ccccc3)cc2c1=O,192 to 193
6,Cn1c(COc2ccc(CC3SC(=O)NC3=O)cc2)nc2ccc(Oc3ccc(NC(=S)Nc4ccccc4)cc3)cc21 (configuration not stated),130 to 131
7,Cc1nc2c(o1)CCc1ccccc1C2=Cc1cccc(NS(C)(=O)=O)c1,185
8,Cc1ccc(S(=O)(=O)NCC2(N3CCN(C)CC3)CCCCC2)cc1,128 to 130
9,CCN(C)C(=O)c1cnn(-c2cccc(C#N)c2)c1C#N,185 to 187
10,Cc1c(NC(=O)CC(C)(C)C)c(C)c2c(c1-c1ccccc1)OCC2c1ccc(C(C)C)cc1 (configuration not stated),178 to 182
11,C#CC1N(C(=O)Oc2ccccc2)c2ccc(OCc3ccccc3[N+](=O)[O-])cc2C23OC12CCCC3O (configuration not stated),207 to 209
12,Cc1cccc(NS(=O)(=O)c2ccc([N+](=O)[O-])cc2)c1,121 to 124
13,COC(=O)c1cccc(Cn2ccc(OCc3ccc(F)cc3F)c(Br)c2=O)c1,115 to 117
14,COc1ccccc1-c1cccc(-n2cnc3cc(C(O)C#N)ccc32)c1 (configuration not stated),116 to 124
15,CCOC(=O)c1cc2c(nc1N)CCN(Cc1ccccc1)C2,141 to 143
16,NC(=O)c1sccc1S,116 to 120
17,CN1CCN(CCCNc2ncc3cc(-c4c(Cl)cccc4Cl)c(NC(=O)Nc4ccc(Cl)cc4)nc3n2)CC1,176 to 181
18,O=C(O)Cc1ccc(-c2cn3ccccc3n2)cc1,217 to 221
